By MIC is commonly meant the smallest concentration in the dilution series that meets the test's criterion for growth inhibition.

Calls of active or inactive are those of the source.

Data on two substances can be found in ChEMBL document CHEMBL5346873, “Strategic modification of low-activity natural antimicrobial peptides confers antibacterial potential in vitro and in vivo” (Eur J Med Chem, 2023).

In assay [1] the test system is Pseudomonas aeruginosa. The assay is described as follows: Antibacterial activity against Pseudomonas aeruginosa in presence of doxycycline. In kind it is functional.
In assay [2] the test system is Klebsiella pneumoniae. The assay is described as follows: Additive antibacterial activity against Klebsiella pneumoniae expressing NDM1 in presence of meropenem. The format is functional.
The subject of assay [3] is Escherichia coli. The experiment in a line: Synergistic antibacterial activity against Escherichia coli assessed as doxycycline MIC. The format is functional.
The test system of assay [4] is Pseudomonas aeruginosa. The assay is described as follows: Antibacterial activity against Pseudomonas aeruginosa assessed as fractional inhibitory concentration in presence of doxycycline. The format is functional.
Assay [5] relates to Vibrio vulnificus. The experiment in a line: Antibacterial activity against Vibrio vulnificus infected in BALB/c mouse wound infection model assessed as survival at 12.5 ug per animal administered 12 hrs post infection and measured for 14 days. The conditions noted are these: dose 12.5 µg; time 14 day. The format is functional.
Assay [6] relates to Klebsiella aerogenes. The assay is described as follows: Antibacterial activity against Enterobacter aerogenes assessed as fractional inhibitory concentration. In kind it is functional.
Assay [7] concerns Klebsiella aerogenes. The experiment in a line: Antibacterial activity against Enterobacter aerogenes in presence of doxycycline. The format is functional.
The subject of assay [8] is Escherichia coli. The assay is described as follows: Antibacterial activity against Escherichia coli incubated for 16 to 20 hrs. In kind it is functional. The conditions noted are these: time 16-20 hrs.
The test system of assay [9] is Vibrio vulnificus. The experiment in a line: Antibacterial activity against Vibrio vulnificus infected in BALB/c mouse wound infection model assessed as reduction in wound infection rate at 12.5 ug per animal administered 12 hrs post infection and measured for 14 days. The format is functional, organism-based. To be noted: dose 12.5 µg, time 14.0 day.
In assay [10] the test system is Klebsiella pneumoniae. The experiment in a line: Additive antibacterial activity against Klebsiella pneumoniae expressing NDM1 assessed as meropenem MIC. The format is functional.
Assay [11] relates to Escherichia coli. The experiment in a line: Synergistic antibacterial activity against Escherichia coli in presence of doxycycline. In kind it is functional.
Assay [12] concerns Vibrio vulnificus. The assay is described as follows: Bactericidal activity against Vibrio vulnificus 204 at MIC after 30 mins. The conditions noted are these: 0.5 h. In kind it is functional.
The test system of assay [13] is Klebsiella aerogenes. The experiment in a line: Antibacterial activity against Enterobacter aerogenes assessed as doxycycline MIC. In kind it is functional.
Assay [14] deals with Pseudomonas aeruginosa. The experiment in a line: Antibacterial activity against Pseudomonas aeruginosa assessed as doxycycline MIC. In kind it is functional.
For assay [15], the system named is Vibrio vulnificus. The experiment in a line: Antibacterial activity against Vibrio vulnificus infected in BALB/c mouse wound infection model assessed as reduction in bacterial infection at 12.5 ug per animal administered 12 hrs post infection and measured for 14 days. In kind it is functional, organism-based. The conditions noted are these: dose 12.5 µg, time 14.0 day.

Assay [16] concerns Klebsiella pneumoniae. The assay is described as follows: Additive antibacterial activity against Klebsiella pneumoniae expressing NDM1 assessed as fractional inhibitory concentration in presence of meropenem. In kind it is functional.
The test system of assay [17] is Escherichia coli. The experiment in a line: Synergistic antibacterial activity against Escherichia coli assessed as fractional inhibitory concentration in presence of doxycycline. In kind it is functional.
Assay [18] relates to Acinetobacter baumannii. The assay is described as follows: Additive antibacterial activity against Acinetobacter baumannii in presence of meropenem by checkerboard microtiter plate assay. In kind it is functional.
Assay [19] has as its system Pseudomonas aeruginosa. The assay is described as follows: Additive antibacterial activity against Pseudomonas aeruginosa in presence of doxycycline by checkerboard microtiter plate assay. The format is functional.
In assay [20] the test system is Pseudomonas aeruginosa. The experiment in a line: Additive antibacterial activity against Pseudomonas aeruginosa assessed as fractional inhibitory concentration in presence of doxycycline by checkerboard microtiter plate assay. In kind it is functional.
Assay [21] deals with Escherichia coli. The experiment in a line: Additive antibacterial activity against Escherichia coli assessed as fractional inhibitory concentration in presence of doxycycline by checkerboard microtiter plate assay. The format is functional.
The test system of assay [22] is Escherichia coli. The assay is described as follows: Additive antibacterial activity against Escherichia coli in presence of doxycycline by checkerboard microtiter plate assay. The format is functional.
In assay [23] the test system is Klebsiella pneumoniae. The assay is described as follows: Synergistic antibacterial activity against Klebsiella pneumoniae expressing NDM1 assessed as fractional inhibitory concentration in presence of meropenem by checkerboard microtiter plate assay. In kind it is functional.
Assay [24] has as its system Streptococcus iniae. The assay is described as follows: Antibacterial activity against Streptococcus iniae in presence of human serum. The format is functional, organism-based.
The test system of assay [25] is Vibrio vulnificus. The experiment in a line: Antibacterial activity against Vibrio vulnificus infected in BALB/c mouse wound infection model assessed as survival at 6.25 ug per animal administered 12 hrs post infection and measured for 14 days. The format is functional. To be noted: dose 6.25 µg; time 14 day.
For assay [26], the system named is Pseudomonas aeruginosa. The experiment in a line: Additive antibacterial activity against Pseudomonas aeruginosa assessed as doxycycline MIC by checkerboard microtiter plate assay. The format is functional.
Assay [27] deals with Klebsiella aerogenes. The assay is described as follows: Additive antibacterial activity against Enterobacter aerogenes assessed as doxycycline MIC by checkerboard microtiter plate assay. The format is functional.
Assay [28] concerns Klebsiella aerogenes. The experiment in a line: Additive antibacterial activity against Enterobacter aerogenes assessed as fractional inhibitory concentration in presence of doxycycline by checkerboard microtiter plate assay. The format is functional.
For assay [29], the system named is Escherichia coli. The assay is described as follows: Additive antibacterial activity against Escherichia coli assessed as doxycycline MIC by checkerboard microtiter plate assay. In kind it is functional.
Assay [30] deals with Klebsiella pneumoniae. The assay is described as follows: Synergistic antibacterial activity against Klebsiella pneumoniae expressing NDM1 in presence of meropenem by checkerboard microtiter plate assay. In kind it is functional.
The test system of assay [31] is Klebsiella pneumoniae. The assay is described as follows: Synergistic antibacterial activity against Klebsiella pneumoniae expressing NDM1 assessed as meropenem MIC by checkerboard microtiter plate assay. In kind it is functional.
Assay [32] concerns Vibrio vulnificus. The experiment in a line: Bactericidal activity against Vibrio vulnificus 204 at MIC after 5 mins. The format is functional, organism-based.
For assay [33], the system named is Klebsiella aerogenes. The experiment in a line: Additive antibacterial activity against Enterobacter aerogenes in presence of doxycycline by checkerboard microtiter plate assay. The format is functional.
For assay [34], the system named is Vibrio vulnificus. The assay is described as follows: Antibacterial activity against Vibrio vulnificus infected in BALB/c mouse wound infection model assessed as reduction in wound infection rate at 6.25 ug per animal administered 12 hrs post infection and measured for 14 days. In kind it is functional, organism-based. To be noted: dose 6.25 µg, time 14.0 day.

The subject of assay [35] is Vibrio vulnificus. The experiment in a line: Antibacterial activity against Vibrio vulnificus infected in BALB/c mouse wound infection model assessed as reduction in bacterial infection at 6.25 ug per animal administered 12 hrs post infection and measured for 14 days. To be noted: dose 6.25 µg, time 14.0 day. In kind it is functional, organism-based.

As for H-KKCIAKAILKKAKKLLKKLVNP-OH, the minimal inhibitory concentration (MIC) is 25 µg/mL in assay [1]; 12.5 µg/mL in assay [2]; 0.195 µg/mL in assay [3]; 6.25 µg/mL in [7]; 12.5 µg/mL in [8]; 3.12 µg/mL in assay [10]. Moreover, the minimal inhibitory concentration (MIC) in assay [11] is 6.25 µg/mL; in assay [13], 0.048 µg/mL; in assay [14], 1.56 µg/mL; in assay [18], 0.048 µg/mL. The FIC in assay [4] is 1.12; in [6] it was 1.03; in assay [16], 0.51; in assay [17] it was 0.5. Besides, the Activity amounted to 80% in assay [5] and 100% in [12]. The outcome in assay [9] was inactive. In addition, the result in assay [15] was Active.

As to H-FKWKSVLKGVKGFVKGYF-OH, the MIC in assay [19] was 12.5 µg/mL; in assay [8], 6.25 µg/mL; in assay [22], 3.12 µg/mL; in assay [26], 6.25 µg/mL; in assay [27], 0.78 µg/mL; in assay [29], 0.024 µg/mL. Further, the minimum inhibitory concentration (MIC) came out at 6.25 µg/mL in assay [30], 3.12 µg/mL in [31], 6.25 µg/mL in [33] and 0.048 µg/mL in assay [18]. Also, the FIC amounted to 1 in assay [20], 0.53 in [21], 0.26 in [23] and 1 in [28]. The result in assay [24], in [32] and in assay [35] was Active. For the same substance, the Activity in [25] is 20%. Also, the result in assay [34] was inactive.
